# Reference: ChEMBL document CHEMBL3885881, “DrugMatrix”
# Organism: Rattus norvegicus
# Experiment: DrugMatrix - Regimen: Daily Repeat
# Format: toxicity, organism-based, Sprague-Dawley
# Set-up: regimen Daily Repeat, gender Male, age 6-8 weeks
# Details: in vivo, po, route oral GAVAGE, vehicle 100 % SALINE; for ABSOLUTE BASOPHIL / ABSOLUTE EOSINOPHIL / ABSOLUTE LYMPHOCYTE / ABSOLUTE MONOCYTE / ABSOLUTE SEGMENTED NEUTROPHIL / BASOPHIL / EOSINOPHIL / ERYTHROCYTE COUNT / HEMATOCRIT / HEMOGLOBIN / LEUKOCYTE COUNT / LYMPHOCYTE / MEAN CORPUSCULAR HEMOGLOBIN / MEAN CORPUSCULAR HEMOGLOBIN CONCENTRATION / MEAN CORPUSCULAR VOLUME / MONOCYTE / NEUTROPHIL / NUCLEATED RED BLOOD CELLS / PLATELET COUNT: tissue Blood; for ALANINE AMINOTRANSFERASE / ALBUMIN / ALKALINE PHOSPHATASE / ASPARTATE AMINOTRANSFERASE / BLOOD UREA NITROGEN / CARBON DIOXIDE / CHLORIDE / CHOLESTEROL / CREATINE PHOSPHOKINASE / CREATININE / GLUCOSE / LACTATE DEHYDROGENASE / LIPASE / PHOSPHORUS / POTASSIUM / SODIUM / TOTAL BILIRUBIN / TOTAL PROTEIN / URIC ACID: tissue Plasma
# [1] = 0 mg/kg, 72 h, dose level Control, time 3 day
# [2] = 0 mg/kg, 120 h, dose level Control, time 5 day
# [3] = 59 mg/kg, 72 h, dose level Low, time 3 day
smiles,measurement,setting,value
NC(=O)NO [HYDROXYUREA],ABSOLUTE BASOPHIL,[1],0 CELLS/uL
same,ABSOLUTE EOSINOPHIL,[1],16.17 CELLS/uL
same,ABSOLUTE LYMPHOCYTE,[1],9117 CELLS/uL
same,ABSOLUTE MONOCYTE,[1],16.17 CELLS/uL
same,ABSOLUTE SEGMENTED NEUTROPHIL,[1],484 CELLS/uL
same,BASOPHIL,[1],0%
same,EOSINOPHIL,[1],0.17%
same,ERYTHROCYTE COUNT,[1],5.19 x10E6/uL
same,HEMATOCRIT,[1],34.9%
same,HEMOGLOBIN,[1],13.35 G/DL
same,LEUKOCYTE COUNT,[1],9.63 x10E3/uL
same,LYMPHOCYTE,[1],94.5%
same,MEAN CORPUSCULAR HEMOGLOBIN,[1],25.72 pg
same,MEAN CORPUSCULAR HEMOGLOBIN CONCENTRATION,[1],38.25 G/DL
same,MEAN CORPUSCULAR VOLUME,[1],67.22 fL
same,MONOCYTE,[1],0.17%
same,NEUTROPHIL,[1],5.17%
same,NUCLEATED RED BLOOD CELLS,[1],0.33 /100WBC
same,PLATELET COUNT,[1],1142 x10E3/uL
same,ALANINE AMINOTRANSFERASE,[1],47.33 u/L
same,ALBUMIN,[1],4.13 G/DL
same,ALKALINE PHOSPHATASE,[1],320.33 u/L
same,ASPARTATE AMINOTRANSFERASE,[1],76.17 u/L
same,BLOOD UREA NITROGEN,[1],12.67 mg/dL
same,CARBON DIOXIDE,[1],30.83 mmol/L
same,CHLORIDE,[1],99 MEQ/L
same,CHOLESTEROL,[1],74.17 mg/dL
same,CREATINE PHOSPHOKINASE,[1],271 u/L
same,CREATININE,[1],0.15 mg/dL
same,GLUCOSE,[1],150.5 mg/dL
same,LACTATE DEHYDROGENASE,[1],92.67 u/L
same,LIPASE,[1],10 u/L
same,PHOSPHORUS,[1],10.67 mg/dL
same,POTASSIUM,[1],5.78 MEQ/L
same,SODIUM,[1],142.83 MEQ/L
same,TOTAL BILIRUBIN,[1],0.1 mg/dL
same,TOTAL PROTEIN,[1],6.18 G/DL
same,URIC ACID,[1],0.65 mg/dL
same,ABSOLUTE BASOPHIL,[2],0 CELLS/uL
same,ABSOLUTE EOSINOPHIL,[2],0 CELLS/uL
same,ABSOLUTE LYMPHOCYTE,[2],8222.33 CELLS/uL
same,ABSOLUTE MONOCYTE,[2],89.67 CELLS/uL
same,ABSOLUTE SEGMENTED NEUTROPHIL,[2],471.33 CELLS/uL
same,BASOPHIL,[2],0%
same,EOSINOPHIL,[2],0%
same,ERYTHROCYTE COUNT,[2],5.13 x10E6/uL
same,HEMATOCRIT,[2],33.47%
same,HEMOGLOBIN,[2],12.97 G/DL
same,LEUKOCYTE COUNT,[2],8.78 x10E3/uL
same,LYMPHOCYTE,[2],93%
same,MEAN CORPUSCULAR HEMOGLOBIN,[2],25.3 pg
same,MEAN CORPUSCULAR HEMOGLOBIN CONCENTRATION,[2],38.77 G/DL
same,MEAN CORPUSCULAR VOLUME,[2],65.23 fL
same,MONOCYTE,[2],1%
same,NEUTROPHIL,[2],6%
same,NUCLEATED RED BLOOD CELLS,[2],0 /100WBC
same,PLATELET COUNT,[2],1298.5 x10E3/uL
same,ALANINE AMINOTRANSFERASE,[2],56 u/L
same,ALBUMIN,[2],3.98 G/DL
same,ALKALINE PHOSPHATASE,[2],321.67 u/L
same,ASPARTATE AMINOTRANSFERASE,[2],99.17 u/L
same,BLOOD UREA NITROGEN,[2],13.8 mg/dL
same,CARBON DIOXIDE,[2],29 mmol/L
same,CHLORIDE,[2],98.67 MEQ/L
same,CHOLESTEROL,[2],59.67 mg/dL
same,CREATINE PHOSPHOKINASE,[2],363 u/L
same,CREATININE,[2],0.24 mg/dL
same,GLUCOSE,[2],167.83 mg/dL
same,LACTATE DEHYDROGENASE,[2],120.83 u/L
same,LIPASE,[2],22.5 u/L
same,PHOSPHORUS,[2],11.6 mg/dL
same,POTASSIUM,[2],5.62 MEQ/L
same,SODIUM,[2],143 MEQ/L
same,TOTAL BILIRUBIN,[2],0.17 mg/dL
same,TOTAL PROTEIN,[2],5.95 G/DL
same,URIC ACID,[2],0.87 mg/dL
same,ABSOLUTE BASOPHIL,[3],0 CELLS/uL
same,ABSOLUTE EOSINOPHIL,[3],15 CELLS/uL
same,ABSOLUTE LYMPHOCYTE,[3],4978 CELLS/uL
same,ABSOLUTE MONOCYTE,[3],44 CELLS/uL
same,ABSOLUTE SEGMENTED NEUTROPHIL,[3],663 CELLS/uL
same,BASOPHIL,[3],0%
same,EOSINOPHIL,[3],0.33%
same,ERYTHROCYTE COUNT,[3],5.08 x10E6/uL
same,HEMATOCRIT,[3],33.63%
same,HEMOGLOBIN,[3],12.83 G/DL
same,LEUKOCYTE COUNT,[3],5.7 x10E3/uL
same,LYMPHOCYTE,[3],87.67%
same,MEAN CORPUSCULAR HEMOGLOBIN,[3],25.3 pg
same,MEAN CORPUSCULAR HEMOGLOBIN CONCENTRATION,[3],38.17 G/DL
same,MEAN CORPUSCULAR VOLUME,[3],66.27 fL
same,MONOCYTE,[3],0.67%
same,NEUTROPHIL,[3],11.33%
same,NUCLEATED RED BLOOD CELLS,[3],0 /100WBC
same,PLATELET COUNT,[3],1118 x10E3/uL
same,ALANINE AMINOTRANSFERASE,[3],47.33 u/L
same,ALBUMIN,[3],4.17 G/DL
same,ALKALINE PHOSPHATASE,[3],328 u/L
same,ASPARTATE AMINOTRANSFERASE,[3],73.67 u/L
same,BLOOD UREA NITROGEN,[3],11.33 mg/dL
same,CARBON DIOXIDE,[3],30 mmol/L
same,CHLORIDE,[3],99 MEQ/L
same,CHOLESTEROL,[3],75.33 mg/dL
same,CREATINE PHOSPHOKINASE,[3],258 u/L
same,CREATININE,[3],0.2 mg/dL
same,GLUCOSE,[3],152 mg/dL
same,LACTATE DEHYDROGENASE,[3],90 u/L
same,LIPASE,[3],10 u/L
same,PHOSPHORUS,[3],10.83 mg/dL
same,POTASSIUM,[3],5.95 MEQ/L
same,SODIUM,[3],142.63 MEQ/L
same,TOTAL BILIRUBIN,[3],0.1 mg/dL
same,TOTAL PROTEIN,[3],6.07 G/DL
same,URIC ACID,[3],0.9 mg/dL
